Test results published in patent US20110045101A1, “FUNGICIDAL SUBSTITUTED AZOLES” (E.I. Du Pont De Nemours and Company, priority 2009, published 2011).
Marks after values point to notes of the source that are not given here.

Columns and labels:
Assay type in all cases: in vivo
Settings in all cases: 100 = 100% disease control
Botrytis cinerea = assay: Test C: tomato Botrytis on tomato seedlings, sprayed the day before inoculation, visual disease rating
Description: General protocol for preparing test suspensions for Tests A-J: The test compounds were first dissolved in acetone in an amount equal to 3% of the final volume and then suspended at the desired concentration (in ppm) in acetone and purified water (50/50 mix) containing 250 ppm of the surfactant Trem® 014 (polyhydric alcohol esters). The resulting test suspensions were then used in tests A-J. Spraying a 200 ppm test suspension to the point of run-off on the test plants was the equivalent of a rate of 500 g/ha. […] The test suspension was sprayed to the point of run-off on tomato seedlings. […] A dash (-) indicates no test results. All results are for 200 ppm except where followed by “*”, which indicates 40 ppm.

Alternaria solani = assay: Test D: tomato early blight, sprayed the day before inoculation, visual disease rating
Description: (§1) General protocol for preparing test suspensions for Tests A-J: The test compounds were first dissolved in acetone in an amount equal to 3% of the final volume and then suspended at the desired concentration (in ppm) in acetone and purified water (50/50 mix) containing 250 ppm of the surfactant Trem® 014 (polyhydric alcohol esters). The resulting test suspensions were then used in tests A-J. Spraying a 200 ppm test suspension to the point of run-off on the test plants was the equivalent of a rate of 500 g/ha. […] The test suspension was sprayed to the point of run-off on wheat seedlings. […] A dash (-) indicates no test results. All results are for 200 ppm except where followed by “*”, which indicates 40 ppm.

Septoria nodorum = assay: Test F: wheat glume blotch on wheat seedlings, sprayed the day before inoculation, visual disease rating
Description: as §1

Septoria tritici = assay: Test G: wheat leaf blotch on wheat seedlings, sprayed the day before inoculation, visual disease rating
Description: General protocol for preparing test suspensions for Tests A-J: The test compounds were first dissolved in acetone in an amount equal to 3% of the final volume and then suspended at the desired concentration (in ppm) in acetone and purified water (50/50 mix) containing 250 ppm of the surfactant Trem® 014 (polyhydric alcohol esters). The resulting test suspensions were then used in tests A-J. Spraying a 200 ppm test suspension to the point of run-off on the test plants was the equivalent of a rate of 500 g/ha. […] The test suspension was sprayed to the point of run-off on wheat seedlings. The following day the seedlings were inoculated with a spore suspension of Septoria tritici (the causal agent of wheat leaf blotch) and incubated in saturated atmosphere at 24° C. for 48 h, and then moved to a growth chamber at 20° C. for 19 days, after which time visual disease ratings were made. […] A dash (-) indicates no test results. All results are for 200 ppm except where followed by “*”, which indicates 40 ppm.

[1] = system: Puccinia recondita f. sp. tritici; assay: Test I: wheat leaf rust on wheat seedlings, sprayed the day before inoculation, visual disease rating
Description: as §1

[2] = system: Erysiphe graminis f. sp. tritici; assay: Test J: wheat powdery mildew on wheat seedlings, sprayed the day before inoculation, visual disease rating
Description: as §1

[3] = 40 ppm (marked *), 0 = no control
[4] = 200 ppm, 0 = no control relative to controls

Cc1nc(C)n(-c2ccc(Cl)cc2)c1-c1c(F)cccc1F [compound 151]
Test C disease control rating (Botrytis cinerea; [3]): 97* % | Test D disease control rating (Alternaria solani; [3]): 100* % | Test F disease control rating (Septoria nodorum; [3]): 69* % | Test G disease control rating (Septoria tritici; [3]): 99* % | Test I disease control rating [1, 3]: 89* % | Test J disease control rating [2, 3]: 96* %

Cc1ccc(-n2c(Cl)nc(Cl)c2-c2c(F)ccc(F)c2Cl)cc1 [compound 198]
Test C disease control rating (Botrytis cinerea; 200 ppm, 0 = no control): 98% | Test D disease control rating (Alternaria solani; 200 ppm, 0 = no control): 99% | Test F disease control rating (Septoria nodorum; 200 ppm, 0 = no control): 0% | Test G disease control rating (Septoria tritici; 200 ppm, 0 = no control): 90% | Test I disease control rating ([1]; 200 ppm, 0 = no control): 100% | Test J disease control rating ([2]; 200 ppm, 0 = no control): 95%

CCc1nc(Cl)c(-c2c(F)cccc2F)n1-c1ccc(Cl)cc1 [compound 108]
Test C disease control rating (Botrytis cinerea; 40 ppm (marked *)): 100* % | Test D disease control rating (Alternaria solani; 40 ppm (marked *)): 100* % | Test F disease control rating (Septoria nodorum; 40 ppm (marked *)): 0* % | Test G disease control rating (Septoria tritici; 40 ppm (marked *)): 74* % | Test I disease control rating ([1]; 40 ppm (marked *)): 98* % | Test J disease control rating ([2]; 40 ppm (marked *)): 99* %

Fc1cc(F)c(-n2c(Cl)nc(Br)c2-c2ccc(Cl)cc2)c(F)c1 [compound 233]
Test C disease control rating (Botrytis cinerea; [3]): 96* % | Test D disease control rating (Alternaria solani; [3]): 88* % | Test F disease control rating (Septoria nodorum; [3]): 0* % | Test G disease control rating (Septoria tritici; [3]): 95* % | Test I disease control rating [1, 3]: 41* % | Test J disease control rating [2, 3]: 94* %

COc1cc(F)c(-c2c(Cl)nc(Cl)n2-c2cccc(F)c2)c(F)c1 [compound 257]
Test C disease control rating (Botrytis cinerea; 200 ppm, 0 = no control): 100% | Test D disease control rating (Alternaria solani; 200 ppm, 0 = no control): 100% | Test F disease control rating (Septoria nodorum; 200 ppm, 0 = no control): 99% | Test G disease control rating (Septoria tritici; 200 ppm, 0 = no control): 95% | Test I disease control rating ([1]; 200 ppm, 0 = no control): 100% | Test J disease control rating ([2]; 200 ppm, 0 = no control): 100%

Cc1ccc(-n2c(Br)nc(Cl)c2-c2c(F)cccc2Cl)cc1 [compound 186]
Test C disease control rating (Botrytis cinerea; 200 ppm, 0 = no control): 98% | Test D disease control rating (Alternaria solani; 200 ppm, 0 = no control): 88% | Test F disease control rating (Septoria nodorum; 200 ppm, 0 = no control): 0% | Test G disease control rating (Septoria tritici; 200 ppm, 0 = no control): 97% | Test I disease control rating ([1]; 200 ppm, 0 = no control): 100% | Test J disease control rating ([2]; 200 ppm, 0 = no control): 100%

COc1cc(F)c(-c2c(Br)nc(C)n2-c2ccc(Cl)cc2)c(F)c1C [compound 59]
Test C disease control rating (Botrytis cinerea; 40 ppm (marked *)): 93* % | Test D disease control rating (Alternaria solani; 40 ppm (marked *)): 100* % | Test F disease control rating (Septoria nodorum; 40 ppm (marked *)): 82* % | Test G disease control rating (Septoria tritici; 40 ppm (marked *)): 97* % | Test I disease control rating ([1]; 40 ppm (marked *)): 86* % | Test J disease control rating ([2]; 40 ppm (marked *)): 97* %

Fc1ccc(-n2c(Br)nc(Cl)c2-c2c(F)cccc2Cl)cc1 [compound 185]
Test C disease control rating (Botrytis cinerea; 200 ppm, 0 = no control): 99% | Test D disease control rating (Alternaria solani; 200 ppm, 0 = no control): 100% | Test F disease control rating (Septoria nodorum; 200 ppm, 0 = no control): 78% | Test G disease control rating (Septoria tritici; 200 ppm, 0 = no control): 94% | Test I disease control rating ([1]; 200 ppm, 0 = no control): 100% | Test J disease control rating ([2]; 200 ppm, 0 = no control): 99%

Cc1ncn(-c2ccc(Cl)c(F)c2)c1-c1c(Cl)cncc1Cl [compound 255]
Test C disease control rating (Botrytis cinerea; 200 ppm, 0 = no control): 99% | Test D disease control rating (Alternaria solani; 200 ppm, 0 = no control): 0% | Test F disease control rating (Septoria nodorum; 200 ppm, 0 = no control): 0% | Test G disease control rating (Septoria tritici; 200 ppm, 0 = no control): 95% | Test I disease control rating ([1]; 200 ppm, 0 = no control): 86% | Test J disease control rating ([2]; 200 ppm, 0 = no control): 91%

Cc1nc(Cl)c(-c2cc(F)ccc2F)n1-c1ccc(Cl)cc1 [compound 93]
Test C disease control rating (Botrytis cinerea; [4]): 97% | Test D disease control rating (Alternaria solani; [4]): 100% | Test F disease control rating (Septoria nodorum; [4]): 100% | Test G disease control rating (Septoria tritici; [4]): 99% | Test I disease control rating [1, 4]: 98% | Test J disease control rating [2, 4]: 100%

COc1cc(F)c(-c2c(Cl)nc(Cl)n2-c2ccc(F)c(F)c2)c(F)c1 [compound 454]
Test C disease control rating (Botrytis cinerea; [4]): 77% | Test D disease control rating (Alternaria solani; [4]): 100% | Test F disease control rating (Septoria nodorum; [4]): 33% | Test G disease control rating (Septoria tritici; [4]): 93% | Test I disease control rating [1, 4]: 100% | Test J disease control rating [2, 4]: 100%

CSc1ccc(F)c(-c2c(Cl)nc(C)n2-c2ccc(Cl)cc2)c1F [compound 235]
Test C disease control rating (Botrytis cinerea; 200 ppm, 0 = no control): 99% | Test D disease control rating (Alternaria solani; 200 ppm, 0 = no control): 99% | Test F disease control rating (Septoria nodorum; 200 ppm, 0 = no control): 92% | Test G disease control rating (Septoria tritici; 200 ppm, 0 = no control): 99% | Test I disease control rating ([1]; 200 ppm, 0 = no control): 97% | Test J disease control rating ([2]; 200 ppm, 0 = no control): 99%

Cc1nc(Cl)c(-c2c(F)cccc2Cl)n1-c1ccc(Cl)c(F)c1 [compound 244]
Test C disease control rating (Botrytis cinerea; 200 ppm, 0 = no control): 100% | Test D disease control rating (Alternaria solani; 200 ppm, 0 = no control): 100% | Test F disease control rating (Septoria nodorum; 200 ppm, 0 = no control): 99% | Test G disease control rating (Septoria tritici; 200 ppm, 0 = no control): 96% | Test I disease control rating ([1]; 200 ppm, 0 = no control): 99% | Test J disease control rating ([2]; 200 ppm, 0 = no control): 100%

COc1cc(F)c(-c2c(C)ncn2-c2ccccn2)c(F)c1 [compound 250]
Test C disease control rating (Botrytis cinerea; 200 ppm, 0 = no control): 99% | Test D disease control rating (Alternaria solani; 200 ppm, 0 = no control): 100% | Test F disease control rating (Septoria nodorum; 200 ppm, 0 = no control): 0% | Test G disease control rating (Septoria tritici; 200 ppm, 0 = no control): 83% | Test I disease control rating ([1]; 200 ppm, 0 = no control): 99% | Test J disease control rating ([2]; 200 ppm, 0 = no control): 94%

CCn1nc(Br)c(-c2c(F)cccc2F)c1-c1ccc(Cl)cc1 [compound 165]
Test C disease control rating (Botrytis cinerea; 200 ppm, 0 = no control): 0% | Test D disease control rating (Alternaria solani; 200 ppm, 0 = no control): 0% | Test F disease control rating (Septoria nodorum; 200 ppm, 0 = no control): 0% | Test G disease control rating (Septoria tritici; 200 ppm, 0 = no control): 93% | Test I disease control rating ([1]; 200 ppm, 0 = no control): 27% | Test J disease control rating ([2]; 200 ppm, 0 = no control): 93%

COc1cc(F)c(-c2c(Cl)nc(Cl)n2-c2ccc(F)cc2)c(F)c1 [compound 142]
Test C disease control rating (Botrytis cinerea; [4]): 99% | Test D disease control rating (Alternaria solani; [4]): 100% | Test F disease control rating (Septoria nodorum; [4]): 97% | Test G disease control rating (Septoria tritici; [4]): 94% | Test I disease control rating [1, 4]: 100% | Test J disease control rating [2, 4]: 100%

Cc1ccc(-n2c(C)nc(Cl)c2-c2c(F)cccc2F)cc1 [compound 82]
Test C disease control rating (Botrytis cinerea; [4]): 90% | Test D disease control rating (Alternaria solani; [4]): 100% | Test F disease control rating (Septoria nodorum; [4]): 100% | Test G disease control rating (Septoria tritici; [4]): 91% | Test I disease control rating [1, 4]: 99% | Test J disease control rating [2, 4]: 100%

Cc1ccc(F)c(-c2c(Cl)ncn2-c2ccc(Cl)cc2)c1F [compound 97]
Test C disease control rating (Botrytis cinerea; [4]): 94% | Test D disease control rating (Alternaria solani; [4]): 97% | Test F disease control rating (Septoria nodorum; [4]): 0% | Test G disease control rating (Septoria tritici; [4]): 95% | Test I disease control rating [1, 4]: 91% | Test J disease control rating [2, 4]: 99%

Fc1ccc(-n2cnc(Cl)c2-c2c(F)cccc2F)cc1F [compound 160]
Test C disease control rating (Botrytis cinerea; 200 ppm, 0 = no control): 91% | Test D disease control rating (Alternaria solani; 200 ppm, 0 = no control): 93% | Test F disease control rating (Septoria nodorum; 200 ppm, 0 = no control): 0% | Test G disease control rating (Septoria tritici; 200 ppm, 0 = no control): 93% | Test I disease control rating ([1]; 200 ppm, 0 = no control): 28% | Test J disease control rating ([2]; 200 ppm, 0 = no control): 98%

Fc1cc(-n2c(Br)nc(Cl)c2-c2c(F)ccc(F)c2Cl)ccc1Cl [compound 219]
Test C disease control rating (Botrytis cinerea; 200 ppm, 0 = no control): 98% | Test D disease control rating (Alternaria solani; 200 ppm, 0 = no control): 97% | Test F disease control rating (Septoria nodorum; 200 ppm, 0 = no control): 51% | Test G disease control rating (Septoria tritici; 200 ppm, 0 = no control): 96% | Test I disease control rating ([1]; 200 ppm, 0 = no control): 99% | Test J disease control rating ([2]; 200 ppm, 0 = no control): 99%

COc1ccc(F)c(-c2c(Cl)ncn2-c2ccc(I)cc2)c1F [compound 448]
Test C disease control rating (Botrytis cinerea; [4]): 97% | Test D disease control rating (Alternaria solani; [4]): 100% | Test F disease control rating (Septoria nodorum; [4]): 89% | Test G disease control rating (Septoria tritici; [4]): 98% | Test I disease control rating [1, 4]: 95% | Test J disease control rating [2, 4]: 98%
